Source: patent US9796668B2, “Natural product analogs including an anti-inflammatory cyanoenone pharmacore and methods of use” (REATA PHARMACEUTICALS, INC., priority 2008, dated 2017)
Where two headings read alike, the source gives them in different places.

Assays:
RAW264.7 macrophages = test: Cell viability (WST-1 reagent); type: cell-based, mouse; conditions: RAW264.7, 20 ng/ml IFNγ
Method: (§1) FIGS. 1-16 and 20-24. Inhibition of NO Production. RAW264.7 macrophages were pre-treated with DMSO or drugs at various concentrations (μM) for 2 hours, then treated with IFNγ for 24 hours. NO concentration in media was determined using a Griess reagent system; cell viability was determined using the WST-1 reagent.
(§2) RAW264.7 macrophages were pre-treated with DMSO or drugs for 2 hours, then treated with recombinant mouse IFNγ (Sigma) for 24 hours. NO concentration in media was determined using the Griess reagent system (Promega). Cell viability was determined using WST-1 reagent (Roche).

[1] = system: IFNγ-induced NO production in RAW264.7 macrophages; test: Suppression of IFNγ-induced NO production (Griess reagent); type: cell-based, mouse
Method: as §1
Compounds of the present disclosure have been tested for inhibition of NO production. Experimental details are provided in Example 1.
as §2

[2] = Mus musculus, RAW264.7, read-out: NO IC50
[3] = Mus musculus, RAW264.7, read-out: IC50 in the NO assay
[4] = Mus musculus, RAW264.7, 20 ng/ml IFNγ, read-out: NO IC50
[5] = Mus musculus, RAW264.7, parent compounds, read-out: IC50 in the NO assay

| SMILES | IC50 (RAW264.7 macrophages; Mus musculus) | IC50 [1, 2] | IC50 [1, 4] | other results |
| --- | --- | --- | --- | --- |
| C=CCC1(CC=C)C(=O)C(C#N)(C#N)C[C@@]2(C)C1=CC[C@@H]1[C@@H]2CC[C@]2(C)C(=O)CC[C@@H]12 [Compound 63290] | ~10 µM | ~3 µM | – | – |
| C=CCC1(CC=C)C(=O)C(C#N)(C#N)C[C@@]2(C)C1=CC[C@@H]1[C@@H]2CC[C@@]2(C)[C@H]1CCC21OCCO1 [Compound 63291] | > 10 µM | ~1.5 µM | – | – |
| C[C@]12C=C(C#N)C(=O)C3(CC=CC3)C1=CC[C@@H]1[C@@H]2CC[C@@]2(C)[C@H]1CCC21OCCO1 [Compound 63304] | ~0.4 µM | ~0.03 µM | – | – |
| C[C@]12C=C(C#N)C(=O)C3(CC=CC3)C1=CC[C@@H]1[C@@H]2CC[C@]2(C)C(=O)CC[C@@H]12 [Compound 63311] | ~0.75 µM | ~0.02 µM | – | – |
| COCO[C@H]1C[C@H]2[C@@H]([C@H](OCOC)C[C@@H]3CC(=O)C(C#N)=C[C@@]32C)[C@@H]2CC[C@H]([C@H](C)CCC(=O)OC)[C@@]12C [Compound 63312] | > 0.2 µM | ~3.5 µM | – | – |
| CCCC1(CCC)C(=O)C(C#N)=C[C@@]2(C)C1=CC[C@@H]1[C@@H]2CC[C@]2(C)C(=O)CC[C@@H]12 [Compound 63313] | ~2.5 µM | ~0.45 µM | – | – |
| COC(=O)CC[C@@H](C)[C@H]1CC[C@H]2[C@@H]3[C@H](O)C[C@@H]4CC(=O)C(C#N)=C[C@]4(C)[C@H]3C[C@H](O)[C@]12C [Compound 63314] | > 0.2 µM | ~8 µM | – | – |
| C[C@]12C=C(C#N)C(=O)C3(CCCC3)C1=CC[C@@H]1[C@@H]2CC[C@@]2(C)[C@H]1CCC21OCCO1 [Compound 63317] | – | ~0.07 µM | – | – |
| C[C@]12C=C(C#N)C(=O)C3(CCCC3)C1=CC[C@@H]1[C@@H]2CC[C@]2(C)C(=O)CC[C@@H]12 [Compound 63318] | – | ~0.05 µM | – | – |
| C[C@]12CC[C@H]3[C@@H](CC=C4C5(CCCC5)C(=O)C(C#N)=C[C@@]43C)[C@@H]1CC[C@@H]2O [Compound 63329] | – | ~0.06 µM | – | – |
| COc1cc(C=CC2(C(C)(C)C(=O)/C=C/[C@@]3(C)C=C(C#N)C(=O)C(C)(C)C3)OCCO2)ccc1O[Si](C)(C)C(C)(C)C [Compound C0008, (S)-3-((E)-4-(2-(4-(tert-butyldimethylsilyloxy)-3-methoxystyryl)-1,3-dioxolan-2-yl)-4-methyl-3-oxopent-1-enyl)-3,5,5-trimethyl-6-oxocyclohex-1-enecarbonitrile] | 5 µM | 0.34 µM | – | – |
| COc1cc(/C=C/C(=O)C(C)(C)C(=O)/C=C/[C@@]2(C)C=C(C#N)C(=O)C(C)(C)C2)ccc1O [Compound C0009, (S)-3-((1E,6E)-7-(4-hydroxy-3-methoxyphenyl)-4,4-dimethyl-3,5-dioxohepta-1,6-dienyl)-3,5,5-trimethyl-6-oxocyclohex-1-enecarbonitrile] | 1 µM | – | 0.1 µM | IC50 [1, 3]: 0.1 µM |
| COc1cc(C=CC2(C(C)(C)C(=O)/C=C/[C@@]3(C)C=C(C#N)C(=O)C(C)(C)C3)OCCO2)ccc1O [Compound C0010, (S)-3-((E)-4-(2-(4-hydroxy-3-methoxystyryl)-1,3-dioxolan-2-yl)-4-methyl-3-oxopent-1-enyl)-3,5,5-trimethyl-6-oxocyclohex-1-enecarbonitrile] | 5 µM | – | 0.7 µM | – |
| COCOC1CCC2C3CCC4=C(C#N)C(=O)CC[C@@]4(C)C3CC[C@@]12C (stereo partly drawn) [Compound D0014, (10S,13R)-17-(methoxymethoxy)-10,13-dimethyl-3-oxo-2,3,6,7,8,9,10,11,12,13,14,15,16,17-tetradecahydro-1H-cyclopenta[a]phenanthrene-4-carbonitrile] | > 10 µM | 2.4 µM | – | – |
| C[C@@]12CCC3C(CCC4=C(C#N)C(=O)CC[C@]43C)C1CCC2O (stereo partly drawn) [Compound D0015, (10S,13R)-17-hydroxy-10,13-dimethyl-3-oxo-2,3,6,7,8,9,10,11,12,13,14,15,16,17-tetradecahydro-1H-cyclopenta[a]phenanthrene-4-carbonitrile] | > 10 µM | – | 2.9 µM | – |
| CC1(C)C(=O)C(C#N)=C[C@]2(C)C3CC[C@]4(C)C(O[Si](C)(C)C)CCC4C3CCC12 (stereo partly drawn) [Compound D0016, (10S,13S)-4,4,10,13-tetramethyl-3-oxo-17-(trimethylsilyloxy)-4,5,6,7,8,9,10,11,12,13,14,15,16,17-tetradecahydro-3H-cyclopenta[a]phenanthrene-2-carbonitrile] | 10 µM | – | 0.15 µM | – |
| CC1(C)C(=O)C(C#N)=C[C@]2(C)C3CC[C@@]4(C)C(CC[C@@H]4O)C3CCC12 (stereo partly drawn) [Compound D0017, (10S,13S,17S)-17-hydroxy-4,4,10,13-tetramethyl-3-oxo-4,5,6,7,8,9,10,11,12,13,14,15,16,17-tetradecahydro-3H-cyclopenta[a]phenanthrene-2-carbonitrile] | 10 µM | – | 0.14 µM | – |
| CC1(C)C(=O)C(C#N)=C[C@]2(C)C3CC[C@]4(C)C(=O)CCC4C3CCC12 (stereo partly drawn) [Compound D0018, (10S,13S)-4,4,10,13-tetramethyl-3,17-dioxo-4,5,6,7,8,9,10,11,12,13,14,15,16,17-tetradecahydro-3H-cyclopenta[a]phenanthrene-2-carbonitrile] | > 10 µM | – | 0.13 µM | IC50 [1, 3]: 0.13 µM |
| CC1CC[C@@]2(OC1)OC1CC3C4CCC5CC(=O)C(C#N)=C[C@]5(C)C4=CC(=O)[C@]3(C)C1[C@@H]2C (stereo partly drawn) [Compound H0001] | 2.5 µM | 0.15 µM | – | – |
| C[C@]1(/C=C/c2ccc(O)cc2)C=C(C#N)C(=O)CC1 [Compound R00141, (S,E)-3-(4-hydroxystyryl)-3-methyl-6-oxocyclohex-1-enecarbonitrile] | > 10 µM | – | 3 µM | – |
| CC1(C)C[C@@](C)(/C=C/c2ccc(O)cc2)C=C(C#N)C1=O [Compound R00142, (S,E)-3-(4-hydroxystyryl)-3,5,5-trimethyl-6-oxocyclohex-1-enecarbonitrile] | > 10 µM | – | 1.2 µM | – |
| COc1cc(/C=C/C(=O)CC(=O)/C=C/c2ccc(O)c(OC)c2)ccc1O [Curcumin, curcumin, reference compound] | 4 µM | – | 1.35 µM | IC50 [1, 5]: 1.5 µM |
| C[C@]12CC[C@H](O)CC1=CC[C@@H]1[C@@H]2CC[C@]2(C)C(=O)CC[C@@H]12 [DHEA, dehydroandrosterone, reference compound] | > 10 µM | – | > 10 µM | IC50 [1, 5]: > 10 µM |
| C[C@@H]1CC[C@@]2(OC1)O[C@H]1C[C@H]3[C@@H]4CC[C@H]5C[C@@H](O)CC[C@]5(C)[C@H]4CC(=O)[C@]3(C)[C@H]1[C@@H]2C [Hecogenin, hecogenin, reference compound] | – | – | – | IC50 (RAW264.7 macrophages): > 10 µM; IC50 ([1]; RAW264.7, 20 ng/ml IFNγ, read-out: NO IC50): > 10 µM |
| Oc1ccc(C=Cc2cc(O)cc(O)c2)cc1 [Resveratrol, resveratrol, reference compound] | > 10 µM | – | > 10 µM | – |
